Assay: Acid dissociation constant of the compound.
Type: ADME

| pKa | SMILES |
| --- | --- |
| 4.8 | O=C(O)CSc1c(F)c(F)c(C(=O)O)c(-c2c3cc(F)c(=O)cc-3oc3cc(O)c(F)cc23)c1F |
| 6.4 | O=C(O)c1ccc(C(=O)O)c(-c2c3ccc(=O)cc-3oc3cc(O)ccc23)c1 [6-Carboxyfluorescein] |
